Results as given in patent US6992079B2, “Substituted 11-phenyl-dibenzazepine compounds useful for the treatment or prevention of diseases characterized by abnormal cell proliferation” (President Fellows of Harvard College, priority 1997, dated 2006).

Columns and labels:
Assay type in all cases: cell-based
HCT-116 = test: In-Vitro Testing SRB panel: Colon Cancer; details: HCT-116
SF-295 = test: In-Vitro Testing SRB panel: CNS Cancer; details: SF-295
SNB-19 = test: In-Vitro Testing SRB panel: CNS Cancer; details: SNB-19
SNB-75 = test: In-Vitro Testing SRB panel: CNS Cancer; details: SNB-75
IGROV1 = test: In-Vitro Testing SRB panel: Ovarian Cancer
ACHN = test: In-Vitro Testing SRB panel: Renal Cancer
PC-3 = test: In-Vitro Testing SRB panel: Prostate Cancer; details: PC-3
MC-F7 = test: In-Vitro Testing SRB panel: Breast Cancer
T-47D = test: In-Vitro Testing SRB panel: Breast Cancer
[1] = Homo sapiens, read-out: LC50 (the source's name)

## COc1cccc2c1C(c1ccccc1Cl)c1cc(Cl)ccc1N(C(=O)c1ccc([N+](=O)[O-])cc1)C2 (stereo not drawn) [Compound 31]
HCT-116
  TGI: 1.00E−04 Molar
HCT-116; log10 conc -4 Molar
  Percent Growth: 12%
HCT-116; log10 conc -5 Molar
  Percent Growth: 17%
HCT-116; log10 conc -6 Molar
  Percent Growth: 32%
HCT-116; log10 conc -7 Molar
  Percent Growth: 92%
HCT-116; log10 conc -8 Molar
  Percent Growth: 100%
HCT-116; Homo sapiens
  GI50: 502 nM
HCT-116; [1]
  CC50: > 100 µM
SF-295; Homo sapiens
  GI50: 13.5 µM
SF-295; [1]
  CC50: > 100 µM
SF-295
  TGI: >1.00E−04 Molar
SF-295; log10 conc -4 Molar
  Percent Growth: 34%
SF-295; log10 conc -5 Molar
  Percent Growth: 52%
SF-295; log10 conc -6 Molar
  Percent Growth: 75%
SF-295; log10 conc -7 Molar
  Percent Growth: 98%
SF-295; log10 conc -8 Molar
  Percent Growth: 97%
SNB-19; Homo sapiens
  GI50: 2610 nM
SNB-19; [1]
  CC50: > 100 µM
SNB-19
  TGI: 5.66E−05 Molar
SNB-19; log10 conc -4 Molar
  Percent Growth: −5%
SNB-19; log10 conc -5 Molar
  Percent Growth: 16%
SNB-19; log10 conc -6 Molar
  Percent Growth: 74%
SNB-19; log10 conc -7 Molar
  Percent Growth: 99%
SNB-19; log10 conc -8 Molar
  Percent Growth: 102%
SNB-75; Homo sapiens
  GI50: 5.9 µM
SNB-75; [1]
  CC50: > 100 µM
SNB-75
  TGI: 6.40E−05 Molar
SNB-75; log10 conc -4 Molar
  Percent Growth: −11%
SNB-75; log10 conc -5 Molar
  Percent Growth: 44%
SNB-75; log10 conc -6 Molar
  Percent Growth: 82%
SNB-75; log10 conc -7 Molar
  Percent Growth: 100%
SNB-75; log10 conc -8 Molar
  Percent Growth: 103%
IGROV1; Homo sapiens, IGROV-1
  GI50: 2130 nM
IGROV1; Homo sapiens, IGROV-1, IGROV1, read-out: LC50 (the source's name)
  CC50: > 100 µM
IGROV1; IGROV1
  TGI: >1.00E−04 Molar
IGROV1; IGROV1, log10 conc -4 Molar
  Percent Growth: 29%
IGROV1; IGROV1, log10 conc -5 Molar
  Percent Growth: 35%
IGROV1; IGROV1, log10 conc -6 Molar
  Percent Growth: 57%
IGROV1; IGROV1, log10 conc -7 Molar
  Percent Growth: 80%
IGROV1; IGROV1, log10 conc -8 Molar
  Percent Growth: 94%
ACHN
  TGI: >1.00E−04 Molar
ACHN; Homo sapiens
  GI50: 803 nM
ACHN; [1]
  CC50: > 100 µM
ACHN; log10 conc -4 Molar
  Percent Growth: 8%
ACHN; log10 conc -5 Molar
  Percent Growth: 26%
ACHN; log10 conc -6 Molar
  Percent Growth: 45%
ACHN; log10 conc -7 Molar
  Percent Growth: 95%
ACHN; log10 conc -8 Molar
  Percent Growth: 92%
PC-3; Homo sapiens
  GI50: 334 nM
PC-3; [1]
  CC50: > 100 µM
PC-3
  TGI: 7.30E−06 Molar
PC-3; log10 conc -4 Molar
  Percent Growth: −26%
PC-3; log10 conc -5 Molar
  Percent Growth: −6%
PC-3; log10 conc -6 Molar
  Percent Growth: 35%
PC-3; log10 conc -7 Molar
  Percent Growth: 66%
PC-3; log10 conc -8 Molar
  Percent Growth: 91%
MC-F7; Homo sapiens, MCF7
  GI50: 821 nM
MC-F7; Homo sapiens, MCF7, MC-F7, read-out: LC50 (the source's name)
  CC50: > 100 µM
MC-F7; MC-F7
  TGI: >1.00E−04 Molar
MC-F7; MC-F7, log10 conc -4 Molar
  Percent Growth: 5%
MC-F7; MC-F7, log10 conc -5 Molar
  Percent Growth: 19%
MC-F7; MC-F7, log10 conc -6 Molar
  Percent Growth: 46%
MC-F7; MC-F7, log10 conc -7 Molar
  Percent Growth: 93%
MC-F7; MC-F7, log10 conc -8 Molar
  Percent Growth: 97%
T-47D; Homo sapiens, T47D
  GI50: 2970 nM
T-47D; Homo sapiens, T47D, T-47D, read-out: LC50 (the source's name)
  CC50: > 100 µM
T-47D; T-47D
  TGI: >1.00E−04 Molar
T-47D; T-47D, log10 conc -4 Molar
  Percent Growth: 27%
T-47D; T-47D, log10 conc -5 Molar
  Percent Growth: 34%
T-47D; T-47D, log10 conc -6 Molar
  Percent Growth: 65%
T-47D; T-47D, log10 conc -7 Molar
  Percent Growth: 90%
T-47D; T-47D, log10 conc -8 Molar
  Percent Growth: 92%
